Assay results from ChEMBL document CHEMBL1159093, “Discovery and optimization of RO-85, a novel drug-like, potent, and selective P2X3 receptor antagonist” (Bioorg Med Chem Lett, 2010).

Key:
[1] = target: Adenosine receptor A1 (Homo sapiens) (UniProt P30542); test: Displacement of [3H]DPCPX from human recombinant A1 receptor expressed in CHO cells at 10 uM after 60 mins by scintillation counting; format: cell-based
[2] = target: Adrenergic receptor alpha-1 (Rattus norvegicus) (UniProt P15823+P23944+P43140); test: Displacement of [3H]prazosin from alpha1 receptor in rat cerebral cortex at 10 uM after 60 mins by scintillation counting; format: tissue-based
[3] = target: Cannabinoid receptor 1 (Homo sapiens) (UniProt P21554); test: Displacement of [3H]CP-55940 from human recombinant CB1 receptor expressed in CHO cells at 10 uM after 120 mins by scintillation counting; format: cell-based
[4] = target: D(1B) dopamine receptor (Homo sapiens) (UniProt P21918); test: Displacement of [3H]SCH 23390 from human recombinant dopamine D5 receptor expressed in rat GH4 cells at 10 uM after 60 mins by scintillation counting; format: cell-based
Rattus norvegicus [5] = species: Rattus norvegicus; test: Displacement of [35S]dATPaS from P2Y receptor in rat cerebral cortex at 10 uM after 60 mins by scintillation counting; format: tissue-based
[6] = target: 5-hydroxytryptamine receptor 1B (Rattus norvegicus) (UniProt P28564); test: Displacement of [125I]CYP from 5HT1B receptor in rat cerebral cortex at 10 uM after 120 mins by scintillation counting in presence of 30 uM isoproterenol; format: tissue-based
[7] = target: 5-hydroxytryptamine receptor 2A (Homo sapiens) (UniProt P28223); test: Displacement of [3H]ketanserin from human recombinant 5HT2A receptor expressed in HEK293 cells at 10 uM after 60 mins by scintillation counting; format: cell-based
[8] = target: 5-hydroxytryptamine receptor 3A (Homo sapiens) (UniProt P46098); test: Displacement of [3H]BRL43694 from human recombinant 5HT3 receptor expressed in CHO cells at 10 uM after 120 mins by scintillation counting; format: cell-based
[9] = target: 5-hydroxytryptamine receptor 6 (Homo sapiens) (UniProt P50406); test: Displacement of [3H]LSD from human recombinant 5HT6 receptor expressed in CHO cells at 10 uM after 120 mins by scintillation counting; format: cell-based
[10] = target: 5-hydroxytryptamine receptor 7 (Homo sapiens) (UniProt P34969); test: Displacement of [3H]LSD from human recombinant 5HT7 receptor expressed in CHO cells at 10 uM after 120 mins by scintillation counting; format: cell-based
[11] = target: Type-2 angiotensin II receptor (Homo sapiens) (UniProt P50052); test: Displacement of [125I]CGP 42112A from human recombinant AT2 receptor expressed in HEK293 cells at 10 uM after 4 hrs by scintillation counting; format: cell-based
[12] = target: Calcitonin gene-related peptide type 1 receptor (Homo sapiens) (UniProt Q16602); test: Displacement of [125I]hCGRPa from human recombinant CGRP receptor expressed in CHO cells at 10 uM after 90 mins by scintillation counting; format: cell-based
[13] = target: Cholecystokinin receptor type A (Homo sapiens) (UniProt P32238); test: Displacement of [125I]CCK-8s from human recombinant CCK1 receptor expressed in CHO cells at 10 uM after 60 mins by scintillation counting; format: cell-based
[14] = target: Somatostatin receptor (Mus musculus) (UniProt P30935+O08858+P30875+P30873+P49660); test: Displacement of [125I]Tyr11-somatostatin-14 from somatostatin in mouse AtT-20 cells at 10 uM after 60 mins by scintillation counting; format: cell-based; conditions: AtT20
[15] = target: Vasoactive intestinal polypeptide receptor 1 (Homo sapiens) (UniProt P32241); test: Displacement of [125I]VIP from human recombinant VPAC1 receptor expressed in CHO cells at 10 uM after 60 mins by scintillation counting; format: cell-based
[16] = target: Vasopressin V1a receptor (Homo sapiens) (UniProt P37288); test: Displacement of [3H]AVP from human recombinant vasopressin V1a receptor expressed in CHO cells at 10 uM after 60 mins by scintillation counting; format: cell-based
[17] = target: Peroxisome proliferator-activated receptor gamma (Homo sapiens) (UniProt P37231); test: Displacement of [3H]rosiglitazone from human recombinant PPARgamma receptor expressed in Escherichia coli at 10 uM after 120 mins by scintillation counting
Rattus norvegicus [18] = species: Rattus norvegicus; test: Displacement of [125I]a-dendrotoxin from potassium channel in rat cerebral cortex at 10 uM after 60 mins by scintillation counting; format: tissue-based
[19] = Protein binding in rat plasma; format: ADME, cell-free; conditions: read-out: PPB (converted)
P2X purinoceptor 2 = P2X purinoceptor 2 (Homo sapiens, UniProt Q9UBL9); test: Antagonist activity at P2X2 receptor; format: functional
P2X purinoceptor 5 = P2X purinoceptor 5 (Homo sapiens, UniProt Q93086); test: Antagonist activity at P2X5 receptor; format: functional
[20] = target: Tumor necrosis factor (Homo sapiens) (UniProt P01375); test: Displacement of [125I]TNF-a from TNFalpha in human U937 cells at 10 uM after 120 mins by scintillation counting; format: cell-based; conditions: U-937
[21] = target: Endothelin-1 receptor (Homo sapiens) (UniProt P25101); test: Displacement of [125I]endothelin-1 from human recombinant ETA receptor expressed in CHO cells at 10 uM after 120 mins by scintillation counting; format: cell-based
[22] = target: Platelet-derived growth factor receptor (Mus musculus) (UniProt P05622+P26618); test: Displacement of [125I]PDGF BB from PDGFR in BALB/c mouse 3T3 cells at 10 uM after 180 mins by scintillation counting; format: cell-based
[23] = target: Melanocortin receptor 4 (Homo sapiens) (UniProt P32245); test: Displacement of [125I]NDP-a-MSH from human recombinant MC4 receptor expressed in CHO cells at 10 uM after 120 mins by scintillation counting; format: cell-based
[24] = target: Substance-K receptor (Homo sapiens) (UniProt P21452); test: Displacement of [125I]NKA from human recombinant NK2 receptor expressed in CHO cells at 10 uM after 60 mins by scintillation counting; format: cell-based
[25] = target: Neuropeptide Y receptor type 1 (Homo sapiens) (UniProt P25929); test: Displacement of [125I]peptideYY from neuropeptide Y1 receptor in human SK-N-MC cells at 10 uM after 120 mins by scintillation counting; format: cell-based
[26] = target: Mu-type opioid receptor (Homo sapiens) (UniProt P35372); test: Displacement of [3H]DAMGO from human recombinant mu opioid receptor expressed in HEK293 cells at 10 uM after 120 mins by scintillation counting; format: cell-based
[27] = target: Adenosine receptor A2a (Homo sapiens) (UniProt P29274); test: Displacement of [3H]CGS 21680 from human adenosine A2A receptor expressed in HEK293 cells at 10 uM after 120 mins by scintillation counting
Chain of Adenosine receptor A2a (Homo sapiens) (P29274 whole entry, looked up): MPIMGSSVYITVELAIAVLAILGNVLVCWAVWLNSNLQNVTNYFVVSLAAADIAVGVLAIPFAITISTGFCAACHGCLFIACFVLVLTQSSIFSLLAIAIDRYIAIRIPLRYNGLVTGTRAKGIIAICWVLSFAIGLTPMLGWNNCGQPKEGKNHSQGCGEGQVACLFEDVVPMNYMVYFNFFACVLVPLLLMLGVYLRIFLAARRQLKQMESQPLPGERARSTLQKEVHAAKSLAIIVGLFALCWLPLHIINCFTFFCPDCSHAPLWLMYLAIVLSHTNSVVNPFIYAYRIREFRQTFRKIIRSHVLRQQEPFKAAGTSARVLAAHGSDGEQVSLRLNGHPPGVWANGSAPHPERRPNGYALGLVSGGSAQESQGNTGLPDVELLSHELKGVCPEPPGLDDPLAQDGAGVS

Chain of Mu-type opioid receptor (Homo sapiens) (P35372 whole entry): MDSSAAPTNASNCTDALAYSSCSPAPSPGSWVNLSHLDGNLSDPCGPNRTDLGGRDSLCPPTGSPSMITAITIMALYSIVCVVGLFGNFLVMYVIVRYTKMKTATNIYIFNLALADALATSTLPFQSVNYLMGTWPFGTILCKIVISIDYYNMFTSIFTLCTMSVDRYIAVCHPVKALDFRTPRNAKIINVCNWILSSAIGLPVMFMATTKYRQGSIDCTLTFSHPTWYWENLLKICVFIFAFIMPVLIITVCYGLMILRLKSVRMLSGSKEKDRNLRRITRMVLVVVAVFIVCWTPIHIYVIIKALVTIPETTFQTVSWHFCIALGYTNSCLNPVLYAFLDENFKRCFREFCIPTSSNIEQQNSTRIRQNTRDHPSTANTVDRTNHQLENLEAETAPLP
Chain of Vasoactive intestinal polypeptide receptor 1 (Homo sapiens) (P32241 whole entry): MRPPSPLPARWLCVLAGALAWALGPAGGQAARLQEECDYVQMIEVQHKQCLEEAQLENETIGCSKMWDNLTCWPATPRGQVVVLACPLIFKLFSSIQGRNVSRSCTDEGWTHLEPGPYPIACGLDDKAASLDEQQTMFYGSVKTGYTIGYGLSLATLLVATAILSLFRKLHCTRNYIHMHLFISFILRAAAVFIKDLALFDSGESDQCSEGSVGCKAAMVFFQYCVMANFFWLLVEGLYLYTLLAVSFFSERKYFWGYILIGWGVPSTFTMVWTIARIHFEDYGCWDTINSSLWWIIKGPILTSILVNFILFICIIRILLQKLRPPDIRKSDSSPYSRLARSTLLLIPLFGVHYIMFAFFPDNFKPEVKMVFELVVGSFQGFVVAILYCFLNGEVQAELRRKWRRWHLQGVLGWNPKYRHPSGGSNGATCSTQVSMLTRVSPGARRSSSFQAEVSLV
Chain of Peroxisome proliferator-activated receptor gamma (Homo sapiens) (P37231 whole entry): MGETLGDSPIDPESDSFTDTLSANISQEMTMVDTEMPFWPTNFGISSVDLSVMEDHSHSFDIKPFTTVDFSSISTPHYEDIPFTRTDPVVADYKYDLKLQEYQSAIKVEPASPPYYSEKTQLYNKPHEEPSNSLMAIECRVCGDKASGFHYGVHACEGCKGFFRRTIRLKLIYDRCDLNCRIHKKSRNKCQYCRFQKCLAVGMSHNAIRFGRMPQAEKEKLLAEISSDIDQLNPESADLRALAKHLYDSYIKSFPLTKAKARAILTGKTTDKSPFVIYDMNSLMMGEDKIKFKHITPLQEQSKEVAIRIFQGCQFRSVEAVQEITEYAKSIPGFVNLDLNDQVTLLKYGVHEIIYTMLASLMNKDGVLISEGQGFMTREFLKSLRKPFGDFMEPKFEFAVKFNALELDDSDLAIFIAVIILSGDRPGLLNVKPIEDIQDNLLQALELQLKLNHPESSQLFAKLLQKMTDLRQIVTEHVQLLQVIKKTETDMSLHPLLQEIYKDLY
Chain of Substance-K receptor (Homo sapiens) (P21452 whole entry): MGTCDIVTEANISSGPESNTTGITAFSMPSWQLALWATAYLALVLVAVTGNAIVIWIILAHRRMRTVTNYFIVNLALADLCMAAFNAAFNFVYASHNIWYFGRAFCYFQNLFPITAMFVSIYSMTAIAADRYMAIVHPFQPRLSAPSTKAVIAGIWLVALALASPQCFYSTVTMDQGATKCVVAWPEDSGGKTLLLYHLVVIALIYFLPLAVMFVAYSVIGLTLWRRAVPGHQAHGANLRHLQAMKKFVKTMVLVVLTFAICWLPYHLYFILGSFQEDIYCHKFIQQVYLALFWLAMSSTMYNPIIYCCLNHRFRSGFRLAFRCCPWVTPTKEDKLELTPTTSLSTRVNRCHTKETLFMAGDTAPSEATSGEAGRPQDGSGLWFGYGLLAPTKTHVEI
Chain of Endothelin-1 receptor (Homo sapiens) (P25101 whole entry): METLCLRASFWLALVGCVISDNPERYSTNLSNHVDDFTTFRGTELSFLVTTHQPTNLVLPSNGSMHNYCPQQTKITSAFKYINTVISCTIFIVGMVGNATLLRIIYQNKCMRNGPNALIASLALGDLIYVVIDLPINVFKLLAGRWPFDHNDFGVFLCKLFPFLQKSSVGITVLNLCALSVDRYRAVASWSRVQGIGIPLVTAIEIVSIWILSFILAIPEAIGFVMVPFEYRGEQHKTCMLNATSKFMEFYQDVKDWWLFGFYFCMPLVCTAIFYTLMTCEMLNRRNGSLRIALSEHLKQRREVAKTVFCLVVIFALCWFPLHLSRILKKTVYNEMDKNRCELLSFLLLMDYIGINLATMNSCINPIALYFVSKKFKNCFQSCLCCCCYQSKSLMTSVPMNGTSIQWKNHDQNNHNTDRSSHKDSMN
Chain of 5-hydroxytryptamine receptor 3A (Homo sapiens) (P46098 whole entry): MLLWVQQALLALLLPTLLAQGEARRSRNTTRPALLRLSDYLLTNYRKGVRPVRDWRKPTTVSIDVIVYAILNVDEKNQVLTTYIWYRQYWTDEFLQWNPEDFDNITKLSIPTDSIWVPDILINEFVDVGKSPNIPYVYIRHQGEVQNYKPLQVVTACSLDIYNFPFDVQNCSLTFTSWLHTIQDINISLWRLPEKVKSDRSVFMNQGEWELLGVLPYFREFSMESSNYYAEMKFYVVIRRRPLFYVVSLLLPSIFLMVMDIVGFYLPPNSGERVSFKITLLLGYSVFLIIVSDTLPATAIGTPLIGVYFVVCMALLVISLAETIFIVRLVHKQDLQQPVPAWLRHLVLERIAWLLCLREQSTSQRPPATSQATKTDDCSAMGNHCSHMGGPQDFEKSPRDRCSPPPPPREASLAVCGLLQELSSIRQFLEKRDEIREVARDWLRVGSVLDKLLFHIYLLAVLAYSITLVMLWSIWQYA
Chain of 5-hydroxytryptamine receptor 2A (Homo sapiens) (P28223 whole entry): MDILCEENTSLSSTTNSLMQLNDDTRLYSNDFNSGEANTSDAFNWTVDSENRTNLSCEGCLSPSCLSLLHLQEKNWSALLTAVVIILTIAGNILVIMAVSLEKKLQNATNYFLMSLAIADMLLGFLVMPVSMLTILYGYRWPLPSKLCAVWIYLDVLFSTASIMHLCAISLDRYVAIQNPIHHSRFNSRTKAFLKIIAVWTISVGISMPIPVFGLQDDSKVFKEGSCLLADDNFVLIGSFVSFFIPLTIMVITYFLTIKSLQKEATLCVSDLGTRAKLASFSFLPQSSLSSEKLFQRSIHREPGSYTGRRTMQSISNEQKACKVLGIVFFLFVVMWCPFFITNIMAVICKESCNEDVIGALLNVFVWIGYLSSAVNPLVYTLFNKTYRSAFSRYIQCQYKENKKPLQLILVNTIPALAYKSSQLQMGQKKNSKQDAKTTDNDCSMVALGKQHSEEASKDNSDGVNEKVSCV
Chain of P2X purinoceptor 5 (Q93086 whole entry): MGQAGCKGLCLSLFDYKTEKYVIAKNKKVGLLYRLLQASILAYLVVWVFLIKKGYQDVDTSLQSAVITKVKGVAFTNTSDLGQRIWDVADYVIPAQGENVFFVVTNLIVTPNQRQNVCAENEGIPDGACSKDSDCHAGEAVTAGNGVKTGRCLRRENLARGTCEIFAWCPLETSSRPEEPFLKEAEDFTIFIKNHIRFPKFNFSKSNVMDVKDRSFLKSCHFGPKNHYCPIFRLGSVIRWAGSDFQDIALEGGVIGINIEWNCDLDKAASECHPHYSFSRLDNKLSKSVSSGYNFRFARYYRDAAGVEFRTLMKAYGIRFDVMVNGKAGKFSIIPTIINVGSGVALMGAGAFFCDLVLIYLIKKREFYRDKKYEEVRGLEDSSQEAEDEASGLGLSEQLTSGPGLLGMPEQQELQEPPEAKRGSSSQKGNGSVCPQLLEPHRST
Chain of Type-2 angiotensin II receptor (Homo sapiens) (P50052 whole entry): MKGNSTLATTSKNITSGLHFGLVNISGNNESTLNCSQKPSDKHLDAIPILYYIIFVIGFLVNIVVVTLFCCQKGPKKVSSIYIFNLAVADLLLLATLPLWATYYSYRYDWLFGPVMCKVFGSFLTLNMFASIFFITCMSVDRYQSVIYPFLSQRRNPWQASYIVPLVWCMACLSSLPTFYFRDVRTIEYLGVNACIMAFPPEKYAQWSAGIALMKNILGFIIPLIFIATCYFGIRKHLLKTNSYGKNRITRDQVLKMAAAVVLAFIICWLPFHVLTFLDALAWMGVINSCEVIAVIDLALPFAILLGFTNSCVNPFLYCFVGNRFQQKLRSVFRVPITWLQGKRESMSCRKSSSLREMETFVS
Chain of 5-hydroxytryptamine receptor 7 (Homo sapiens) (P34969 whole entry): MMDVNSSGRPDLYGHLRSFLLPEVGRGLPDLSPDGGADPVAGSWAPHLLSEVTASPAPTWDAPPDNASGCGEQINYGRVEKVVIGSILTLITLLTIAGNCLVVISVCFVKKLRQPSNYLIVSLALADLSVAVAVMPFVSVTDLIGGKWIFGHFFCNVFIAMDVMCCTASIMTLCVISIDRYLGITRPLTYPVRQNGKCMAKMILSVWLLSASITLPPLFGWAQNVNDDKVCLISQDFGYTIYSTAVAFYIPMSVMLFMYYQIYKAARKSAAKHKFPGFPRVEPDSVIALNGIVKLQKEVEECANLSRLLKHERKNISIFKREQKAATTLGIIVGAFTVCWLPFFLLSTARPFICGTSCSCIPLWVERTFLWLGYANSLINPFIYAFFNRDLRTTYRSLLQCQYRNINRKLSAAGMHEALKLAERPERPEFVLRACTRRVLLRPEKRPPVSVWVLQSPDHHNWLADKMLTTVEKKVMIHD

Compound: CC(=O)N1CCN(C[C@@H](C)NC(=O)c2cc3c(-c4ccccc4)nn(C)c3s2)CC1
- Activity [1]: > 50%
- Activity [2]: > 50%
- Activity [3]: > 50%
- Activity [4]: > 50%
- Activity (Rattus norvegicus [5]): > 50%
- Activity [6]: > 50%
- Activity [7]: > 50%
- Activity [8]: > 50%
- Activity [9]: > 50%
- Activity [10]: > 50%
- Activity [11]: > 50%
- Activity [12]: > 50%
- Activity [13]: > 50%
- Activity [14]: > 50%
- Activity [15]: > 50%
- Activity [16]: > 50%
- Activity [17]: > 50%
- Activity (Rattus norvegicus [18]): > 50%
- fraction unbound [19]: 0.11
- IC50 (P2X purinoceptor 2): > 10 µM
- IC50 (P2X purinoceptor 5): > 10 µM
- Activity [20]: > 50%
- Activity [21]: > 50%
- Activity [22]: > 50%
- Activity [23]: > 50%
- Activity [24]: > 50%
- Activity [25]: > 50%
- Activity [26]: > 50%
- Activity [27]: > 50%
